Results on one compound are retold here after patent publication US6706716B2, “Compounds specific for the human α1d adrenergic receptor and uses thereof” (Synaptic Pharmaceutical Corporation, priority 1998, dated 2004).

“Also recorded” adds a separate entry of the source.

Series [1] addresses T1, human 5-HT1Dα (5-HT1D) receptor (Homo sapiens, UniProt P28221).
T1 construct: expressed in transfected cells; host or cells: LM(tk-) clonal cell line Ltk-8-30-84 (ATCC CRL 10421)
The series can be described thus: Competition binding ([3H]serotonin) at cloned human 5-HT1Dα (5-HT1D) receptor. The conditions noted are these: read-out: binding affinity (pKi) 5-HT1Dα (5-HT1D) (converted). How it is done:
(§1) 5-HT1Dα (5-HT1D) and 5-HT1Dβ (5-HT1B) receptors: The cell lysates of the LM(tk-) clonal cell line stably transfected with the genes encoding each of these 5-HT receptor subtypes were prepared as described above. The cell line for the 5-HT1Dα (5-HT1D) receptor, designated as Ltk-8-30-84, was deposited on Apr. 17, 1990, and accorded ATCC Accession No. CRL 10421. The cell line for the 5-HT1Dβ (5-HT1B) receptor, designated as Ltk-11, was deposited on Apr. 17, 1990, and accorded ATCC Accession No. CRL 10422. These preparations were suspended in 50 mM Tris-HCl buffer (pH 7.4 at 37° C.) containing 10 mM MgCl2, 0.2 mM EDTA, 10 μM pargyline, and 0.1% ascorbate. […] Nonspecific binding was determined in the presence of 10 μM serotonin. The bound radioligand was separated by filtration through GF/B filters using a cell harvester.

Series [2] deals with T2, human 5-HT1Dβ (5-HT1B) receptor (Homo sapiens, UniProt P28222).
T2 construct: expressed in transfected cells; host or cells: LM(tk-) clonal cell line Ltk-11 (ATCC CRL 10422)
Nature of the series: Competition binding ([3H]serotonin) at cloned human 5-HT1Dβ (5-HT1B) receptor. The conditions noted are these: read-out: binding affinity (pKi) 5-HT1Dβ (5-HT1B) (converted). How it is done:
as §1

Another series has as its target T3, α1D adrenergic receptor (Rattus norvegicus, UniProt P23944).
T3 construct: from tissue; host or cells: rat thoracic aorta strips
T3 sequence (P23944 1-561): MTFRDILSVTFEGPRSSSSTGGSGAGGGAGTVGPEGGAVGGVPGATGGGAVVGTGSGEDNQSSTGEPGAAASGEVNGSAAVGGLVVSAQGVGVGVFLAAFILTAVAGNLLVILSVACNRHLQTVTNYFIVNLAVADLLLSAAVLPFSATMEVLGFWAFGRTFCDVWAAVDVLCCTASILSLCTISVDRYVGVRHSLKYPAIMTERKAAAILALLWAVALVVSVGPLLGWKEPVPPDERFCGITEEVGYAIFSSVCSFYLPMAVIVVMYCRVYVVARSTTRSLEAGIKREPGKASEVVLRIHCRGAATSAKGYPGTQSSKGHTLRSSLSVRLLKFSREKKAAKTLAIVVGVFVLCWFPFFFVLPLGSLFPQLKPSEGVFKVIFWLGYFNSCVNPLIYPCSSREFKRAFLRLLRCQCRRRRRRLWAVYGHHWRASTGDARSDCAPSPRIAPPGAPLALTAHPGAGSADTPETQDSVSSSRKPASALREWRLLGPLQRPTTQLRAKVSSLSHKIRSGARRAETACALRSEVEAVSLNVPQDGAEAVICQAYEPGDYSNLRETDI
The series can be described thus: Isolated tissue functional assay, thoracic aorta (phenylephrine induced contraction). How it is done:
(§2) The functional in vitro activity of Compound 7 was characterized in several pharmacologically defined α1 adrenoceptor subtype isolated tissue assays (Aboud et al., 1993). (Rat epididymal vas deferens was used to determine α1A functional responses, spleen was used for α1B responses, and thoracic aorta was used for α1D responses.) Experiments were carried out according to the method of Deng et al., 1996, with minor buffer and tissue setup tension modifications. Krebs additionally contained 0.1 μM desipramine and 10 μM corticosterone to block neuronal and extra neuronal uptake, respectively, and 0.3 μM idazoxan to eliminate α2 mediated responses. Aorta and vas deferens strips were set at 0.5 g resting tension, and the splenic preparations were tensioned to 1 g. All preparations were equilibrated for 1 hr before the addition of drugs.
(§3) Additionally, its antagonist potency was determined by its ability to antagonize phenylephrine (PE) induced contraction in each of these preparations. The degree of shift of the PE agonist dose response-curve in the presence of Compound 7 was measured and pKB values were calculated (mean±s.e.m.).

In a further series the target is T4, α1B adrenoceptor (Rattus norvegicus, UniProt P15823).
T4 construct: from tissue; host or cells: rat splenic preparations
T4 sequence (P15823 1-515): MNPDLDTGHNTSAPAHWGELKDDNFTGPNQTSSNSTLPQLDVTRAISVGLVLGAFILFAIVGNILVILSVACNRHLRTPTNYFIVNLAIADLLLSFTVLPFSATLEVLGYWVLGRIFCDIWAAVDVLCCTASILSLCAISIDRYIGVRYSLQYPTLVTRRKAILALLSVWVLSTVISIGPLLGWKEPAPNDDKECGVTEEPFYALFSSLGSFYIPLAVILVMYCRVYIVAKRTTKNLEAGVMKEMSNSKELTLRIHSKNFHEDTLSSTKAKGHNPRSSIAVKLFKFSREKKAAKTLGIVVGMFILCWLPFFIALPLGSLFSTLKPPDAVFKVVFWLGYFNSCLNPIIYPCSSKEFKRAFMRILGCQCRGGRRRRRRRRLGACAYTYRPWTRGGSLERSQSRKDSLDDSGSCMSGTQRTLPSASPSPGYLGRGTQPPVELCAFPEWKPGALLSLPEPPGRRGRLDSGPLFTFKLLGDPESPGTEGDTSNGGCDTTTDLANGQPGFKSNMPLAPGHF
Nature of the series: Isolated tissue functional assay, spleen (phenylephrine induced contraction). How it is done: as §2, §3

For series [3], the system named is urethane-anesthetized rats. Nature of the series: Blood pressure in urethane-anesthetized, normotensive rats. Format: in vivo, rat. The protocol:
Rats were anesthetized with urethane and PE50 cannulae were placed in the femoral artery and vein for blood pressure monitoring and drug administration, respectively. After stabilization, rats were administered 200 μl saline vehicle or increasing doses of BMY 7378 or Compound 7 at 10 minutes intervals until the reduction in blood pressure reached a plateau. The 5-HT1A-selective antagonist WAY 100635 (1 mg/kg) was then administered and blood pressure monitored for an additional 10 minutes.

Series [4] has as its system conscious, normotensive rats. Nature of the series: Mean arterial blood pressure in conscious, normotensive rats. Format: in vivo, rat. Particulars: 4.0 mg/kg i.v., 0-60 min. How it is done:
Rats were anesthetized and a PE50 chronic indwelling cannula was placed in the abdominal aorta for measurement of blood pressure. On the following day, 5 rats each were administered vehicle (1% DMSO) or Compound 7 (4.0 mg/kg in 1% DMSO, i.v.) and mean blood pressure measurements were recorded at 0, 5, 30, and 60 minutes thereafter.

T1 sequence (P28221 whole entry): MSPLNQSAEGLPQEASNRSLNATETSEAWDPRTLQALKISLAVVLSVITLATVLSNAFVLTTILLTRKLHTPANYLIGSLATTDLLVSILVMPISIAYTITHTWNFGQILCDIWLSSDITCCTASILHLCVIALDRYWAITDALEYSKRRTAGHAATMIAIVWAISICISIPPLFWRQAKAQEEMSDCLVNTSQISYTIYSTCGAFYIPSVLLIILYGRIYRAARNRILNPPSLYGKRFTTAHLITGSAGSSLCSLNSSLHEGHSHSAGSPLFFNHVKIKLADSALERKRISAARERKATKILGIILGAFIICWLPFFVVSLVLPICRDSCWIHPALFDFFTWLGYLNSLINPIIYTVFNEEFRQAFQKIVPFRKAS
T2 sequence (P28222 whole entry): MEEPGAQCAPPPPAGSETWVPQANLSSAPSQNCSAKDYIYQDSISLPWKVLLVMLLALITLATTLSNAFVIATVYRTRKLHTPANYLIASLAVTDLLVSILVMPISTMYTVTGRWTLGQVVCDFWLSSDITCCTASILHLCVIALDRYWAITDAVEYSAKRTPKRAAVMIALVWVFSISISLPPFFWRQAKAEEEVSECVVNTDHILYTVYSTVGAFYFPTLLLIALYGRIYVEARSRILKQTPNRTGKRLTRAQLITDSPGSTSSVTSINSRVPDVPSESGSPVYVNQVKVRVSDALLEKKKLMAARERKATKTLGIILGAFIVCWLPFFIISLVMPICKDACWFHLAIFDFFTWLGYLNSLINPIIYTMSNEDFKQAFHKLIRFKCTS

On to `O=C1CC2(CCCC2)CC(=O)N1CCN1CCN(c2cc(F)c(F)cc2F)CC1` [Compound 7, 8-{2-[4-(2,4,5-Trifluorophenyl)piperazin-1-yl]ethyl}-8-azaspiro[4.5]decane-7,9-dione], for which the Ki in series [1] was 794 nM; in series [2] it was 5010 nM. For the same compound, the agonist activity entry on α1D adrenergic receptor (concentrations up to 10 μM, rat thoracic aorta (α1D model)) is “failed to produce agonist activity”; at α1B adrenoceptor (concentrations up to 10 μM, rat spleen (α1B model)), “failed to produce agonist activity”. Besides, the Kb on α1D adrenergic receptor (rat thoracic aorta (α1D), mean±s.e.m., read-out: pKB (antagonism of phenylephrine induced contraction) (converted)) is 3.16 nM; at α1B adrenoceptor (rat spleen (α1B), mean±s.e.m., read-out: pKB (antagonism of phenylephrine induced contraction) (converted)) it was 200 nM. The “fold less effective than in the aorta” value at α1B adrenoceptor (spleen versus aorta) is listed as “approximately 60 fold”. Further, the “reversal of the blood pressure effect by WAY 100635” value in series [3] (5-HT1A-selective antagonist WAY 100635 1 mg/kg given after plateau) was “not reversed”. For the same compound, the “effect on systolic, diastolic and mean blood pressure” value in series [3] (urethane-anesthetized rats, increasing i.v. doses at 10 min intervals) is listed as “reduces blood pressure in anesthetized rat, although to a lesser extent than BMY 7378; also recorded: only a minor reduction in blood pressure”. For the same compound, the “effect on mean blood pressure” value in series [4] is on record as “no reduction in blood pressure”.
